Experiments:
[1] = test system: Cotton (Gossypium indicum); assay: Upland foliar application test, crop injury cotton; type: in vivo; details: foliar application at stage of 2-3 leaves, 50 g ai/a, emulsion, 40th day after spray
Procedure: (§1) Resin-made 1/1000-are pots were filled with the soil of an upland field. After they were fertilized, cotton and soybean were seeded and 3 cm soil covering was applied. In addition, amaranth, common lambs-quarters, barnyardgrass, green foxtail, large crabgrass and johnsongrass were seeded and 1 cm soil covering was applied. One day later, a wettable powder prepared from a predetermined amount of each test compound in a similar manner to the procedures described in Formulation Example 1 was diluted with water and then sprayed evenly at an application rate equal to 10 l per are onto the surface of the soil by means of a pressure-operated sprayer. The weeds and crops were allowed to grow in a green house and influence to them were observed on the 50th day after the spray. The degree of damages of each test plant and the degree of injury to each crop were determined by measuring fresh weight in each group and indicated by % calculated according to the following formula. [formula]
(§2) Resin-made 1/1000-are pots were filled with the soil of an upland field. After they were fertilized, cotton and soybean were seeded and 3 cm soil covering was applied. Five days later, amaranth, common lambsquarters, barnyardgrass, green foxtail, large crabgrass and johnsongrass were seeded and 1 cm soil covering was applied. They were allowed to grow in a green house. When each plant grew to the stage of 2-3 leaves, an emulsion formulated from a predetermined amount of each test compound in a similar manner to the procedures described in Formulation Example 11 was diluted with water and then sprayed at a predetermined application rate by means of a pressure-operated sprayer. The application rate was controlled at 5 l per are. Influence to the crops and weeds were observed on the 40th day after the spray of the herbicides. The results are shown in Table 4 in which the degree of damages of each test plant and the degree of injury to each crop are shown in a similar manner to Test 2.

[2] = test system: Foxtail (Setaria viridis); assay: Upland soil application test, green foxtail; type: in vivo; details: 1200 h, soil application one day after seeding, 50 g ai/a, wettable powder, fresh weight on 50th day after spray, read-out: Herbicidal effects Foxtail (Setaria viridis)
Procedure: as §1

[3] = test system: Crabgrass (Digitaria adscendens); assay: Upland soil application test, large crabgrass; type: in vivo; details: 1200 h, soil application one day after seeding, 50 g ai/a, wettable powder, fresh weight on 50th day after spray, read-out: Herbicidal effects Crabgrass (Digitaria adscendens)
Procedure: as §1

[4] = test system: Crabgrass (Digitaria adscendens); assay: Upland foliar application test, large crabgrass; type: in vivo; details: 960 h, foliar application at stage of 2-3 leaves, 50 g ai/a, emulsion, 40th day after spray, read-out: Herbicidal effects Crabgrass (Digitaria adscendens)
Procedure: as §1, §2

[5] = test system: Soybean (Glycine max); assay: Upland foliar application test, crop injury soybean; type: in vivo; details: foliar application at stage of 2-3 leaves, 50 g ai/a, emulsion, 40th day after spray
Procedure: as §2

[6] = test system: Cotton (Gossypium indicum); assay: Upland soil application test, crop injury cotton; type: in vivo; details: soil application one day after seeding, 50 g ai/a, wettable powder, fresh weight on 50th day after spray
Procedure: as §1

[7] = test system: johnsongrass emerging from rhizome; assay: Application test on johnsongrass emerging from rhizome; type: in vivo; details: foliar application at stage of 4-5 leaves, application rate of active ingredient 20 (unit not given), emulsion, 50th day after spray
Procedure: as §1
Resin-made 1/1000-are pots were filled with the soil of an upland field. After they were fertilized, rhizome of johnsongrass were transplanted to the pots and 3 cm soil covering was applied. They were allowed to grow in a green house. When each johnsongrass grew to the stage of 4-5 leaves, an emulsion formulated from a predetermined amount of each test compound in a similar manner to the procedures described in Formulation Example 11 was diluted with water and then sprayed at a predetermined application rate by means of a pressure-operated sprayer. The application rate was controlled at 5 l per are. The effect of each compound against the johnsongrass emerging from its rhizome was observed on the 50th day after the spray of the herbicides. The results are shown in Table 5 in which the herbicidal effect against johnsongrass is shown in a similar manner to Test 2.

[8] = test system: Barnyardgrass (Echinochloa crusgalli); assay: Upland foliar application test, barnyardgrass; type: in vivo; details: Echinochloa crus-galli, 960 h; foliar application at stage of 2-3 leaves, 50 g ai/a, emulsion, 40th day after spray; read-out: Herbicidal effects Barnyardgrass (Echinochloa crusgalli)
Procedure: as §2

[9] = test system: common lambsquarters; assay: Upland foliar application test, common lambsquarters; type: in vivo; details: Chenopodium album, 960 h; foliar application at stage of 2-3 leaves, 50 g ai/a, emulsion, 40th day after spray; read-out: Herbicidal effects Common lambquarters
Procedure: as §2

[10] = test system: ALS (acetolactate syntase) from pea seedlings; assay: ALS (acetolactate syntase) inhibition test, pea enzyme; type: biochemical; details: 10,000 ppm (0.5 μg/0.5 ml) of compound; 1 hour at 30° C.; absorbance at 525 nm
Procedure: (§3) To determine the selectivity in enzyme level between crops and weeds, an ALS inhibition test was conducted using pea as a typical broadleaf crop and barnyardgrass as a representative gramineous weeds.
(§4) After seeds of pea and barnyardgrass were allowed to germinate at 25° C. for 8-14 days in a dark place, partially-purified suspensions (Suspensions A) of acetolactate syntase were separately obtained from the seedlings in accordance with the procedures described in the literature, Plant Physiology, 75, 827-831. In a test tube, 0.5 mg of one of test compounds was weighed, followed by the addition of 0.15 ml of a 20 mM K2 HPO4 solution and 0.25 ml of a reaction substrate medium which consisted of 40 mM of K2 HPO4, 40 mM of sodium pyruvate, 1 mM of TPP, 1 mM of MgCl2 and 20 μM of FAD so that 0.4 ml of a reaction solution (Solution B) was prepared. Added to 0.4 ml of Solution B was 0.1 ml of Suspension A. After the resultant mixture was shaken for 1 hour in a thermostat water bath controlled at 30° C., 50 μl of 6N sulfuric acid were added to terminate the reaction.
(§5) Next, the test tube with the reaction-terminated liquid mixture contained therein was transferred into a thermostat water bath controlled at 60° C. and was heated for 15 minutes. Thereafter, 0.5 ml of a 0.5% creatine solution and 0.5 ml of a 5% alkaline α-naphthol solution were added, and the resultant mixture was maintained at 60° C. for 15 minutes. As a result, the test solution developed a pink-to-red color. After the above operation, the absorbance of the test solution at 525 nm was measured by a spectrophotometer (Absorbance 1 of Test Compound).
(§6) Further, the absorbance (Absorbance 2 of Blank) of a solution obtained by subjecting a portion of Solution B to the above procedures without addition of any test compound and the absorbance (Absorbance 3 of sulfuric acid) of another solution obtained by subjecting another portion of Solution B to the above procedures which using 50 μl of 6N sulfuric acid as a test compound were also measured.

[11] = test system: ALS (acetolactate syntase) from barnyardgrass seedlings; assay: ALS (acetolactate syntase) inhibition test, barnyardgrass enzyme; type: biochemical; details: 10,000 ppm (0.5 μg/0.5 ml) of compound; 1 hour at 30° C.; absorbance at 525 nm
Procedure: as §3, §4, §5, §6

[12] = test system: Foxtail (Setaria viridis); assay: Upland foliar application test, green foxtail; type: in vivo; details: 960 h, foliar application at stage of 2-3 leaves, 50 g ai/a, emulsion, 40th day after spray, read-out: Herbicidal effects Foxtail (Setaria viridis)
Procedure: as §1, §2

[13] = test system: Amaranth (Amaranthus viridis); assay: Upland foliar application test, amaranth; type: in vivo; details: 960 h, foliar application at stage of 2-3 leaves, 50 g ai/a, emulsion, 40th day after spray, read-out: Herbicidal effects Amaranth (Amaranthus viridis)
Procedure: as §1, §2

[14] = test system: Amaranth (Amaranthus viridis); assay: Upland soil application test, amaranth; type: in vivo; details: 1200 h, soil application one day after seeding, 50 g ai/a, wettable powder, fresh weight on 50th day after spray, read-out: Herbicidal effects Amaranth (Amaranthus viridis)
Procedure: as §1

[15] = test system: Johnsongrass; assay: Upland foliar application test, johnsongrass; type: in vivo; details: Sorghum halepense, 960 h; foliar application at stage of 2-3 leaves, 50 g ai/a, emulsion, 40th day after spray; read-out: Herbicidal effects Johnsongrass
Procedure: as §2

[16] = test system: Soybean (Glycine max); assay: Upland soil application test, crop injury soybean; type: in vivo; details: soil application one day after seeding, 50 g ai/a, wettable powder, fresh weight on 50th day after spray
Procedure: as §1

[17] = test system: Barnyardgrass (Echinochloa crusgalli); assay: Upland soil application test, barnyardgrass; type: in vivo; details: Echinochloa crus-galli, 1200 h; soil application one day after seeding, 50 g ai/a, wettable powder, fresh weight on 50th day after spray; read-out: Herbicidal effects Barnyardgrass (Echinochloa crusgalli)
Procedure: as §1

[18] = test system: Johnsongrass; assay: Upland soil application test, johnsongrass; type: in vivo; details: Sorghum halepense, 1200 h; soil application one day after seeding, 50 g ai/a, wettable powder, fresh weight on 50th day after spray; read-out: Herbicidal effects Johnsongrass
Procedure: as §1

[19] = test system: common lambsquarters; assay: Upland soil application test, common lambsquarters; type: in vivo; details: Chenopodium album, 1200 h; soil application one day after seeding, 50 g ai/a, wettable powder, fresh weight on 50th day after spray; read-out: Herbicidal effects Common lambquarters
Procedure: as §1

Compound	Crop injury Cotton (Gossypium indicum) [1]	pest or weed control at 5000 g/ha [2]	pest or weed control at 5000 g/ha [3]	pest or weed control at 5000 g/ha [4]	Crop injury Soybean (Glycine max) [5]	Crop injury Cotton (Gossypium indicum) [6]	Herbicidal effect against johnsongrass emerging from rhizome [7]	pest or weed control at 5000 g/ha [8]	pest or weed control at 5000 g/ha [9]	Enzymoreaction inhibition rate (%) Pea [10]	Enzymoreaction inhibition rate (%) Barnyardgrass [11]	pest or weed control at 5000 g/ha [12]	pest or weed control at 5000 g/ha [13]	pest or weed control at 5000 g/ha [14]	pest or weed control at 5000 g/ha [15]	Crop injury Soybean (Glycine max) [16]	pest or weed control at 5000 g/ha [17]	pest or weed control at 5000 g/ha [18]	pest or weed control at 5000 g/ha [19]
CCCCCOC(OCCCCC)c1ccccc1Oc1nc(OC)cc(OC)n1 [Compound No. 4]	0%	100%	100%	100%	0%	0%	100%	100%	100%	0%	100%	100%	100%	100%	100%	0%	100%	100%	100%
COc1cc(OC)nc(Oc2ccccc2C(OC(C)C)OC(C)C)n1 [Compound No. 2]	0%	85%	80%	85%	0%	0%	95%	80%	80%	0%	100%	100%	100%	80%	100%	0%	80%	100%	85%
COc1cc(OC)nc(Oc2c(Cl)cccc2C(OC)OC)n1 [Comp. Comp'd E, reference compound]	30%	60%	60%	45%	30%	30%	5%	65%	65%			50%	60%	45%	30%	30%	55%	35%	50%
CCOC(OCC)c1ccccc1Oc1nc(OC)cc(OC)n1 [Comp. Comp'd D, 2-(4,6-dimethoxypyrimidin-2-yloxy)benzaldehyde diethylacetal, reference compound]	35%	100%	85%	90%	35%	45%	50%	100%	90%			95%	100%	100%	100%	40%	100%	100%	100%
COc1cc(OC)nc(Oc2ccccc2C(OC)OC)n1 [Comp. Comp'd C, 2-(4,6-dimethoxypyrimidin-2-yloxy)benzaldehyde dimethylacetal, reference compound]	50%	100%	100%	90%	40%	55%	40%	100%	90%			95%	100%	80%	100%	50%	100%	100%	100%

Source: patent US5178662A, “Benzaldehyde acetal compounds, preparation process thereof, and herbicidal compositions containing the same as active ingredients” (Mitsui Toatsu Chemicals, Inc., priority 1990, dated 1993)
